From ChEMBL document CHEMBL1255282, “Escherichia coli isolate coproducing 16S rRNA Methylase and CTX-M-type extended-spectrum beta-lactamase isolated from an outpatient in the United States” (2008)
Converted amounts (≈) assume the structure as drawn. The source made the active and inactive calls. The calls are words filed in the database; no cut-off is given here.

Tests used:
Assay type in all cases: functional
[1] = tested on: Escherichia coli; test: Antibacterial activity against 16S rRNA methylase RmtB and CTX-M-65 ESBL producing Escherichia coli isolate ECRB1 by Etest
[2] = tested on: Escherichia coli; test: Antibacterial activity against Escherichia coli DH10B harboring pBCSK expressing rmtB gene by Etest
[3] = tested on: Escherichia coli; test: Antibacterial activity against 16S rRNA methylase RmtB and CTX-M-65 ESBL producing Escherichia coli DH10B by Etest
[4] = tested on: Escherichia coli; test: Antibacterial activity against 16S rRNA methylase rmtB and CTX-M-65 ESBL producing rifampin resistant Escherichia coli isolate ECRB1 by Etest

O=C(O)c1cn(C2CC2)c2cc(N3CCNCC3)c(F)cc2c1=O
Activity [1]: Active

NCC[C@H](O)C(=O)N[C@@H]1C[C@H](N)[C@@H](O[C@H]2O[C@H](CN)[C@@H](O)[C@H](O)[C@H]2O)[C@H](O)[C@H]1O[C@H]1O[C@H](CO)[C@@H](O)[C@H](N)[C@H]1O [AMIKACIN]
MIC [2]: > 256 µg/mL | MIC [1]: > 256 µg/mL | MIC [3]: ≥ 128 µg/mL | MIC [4]: ≥ 128 µg/mL

CO/N=C(\C(=O)N[C@@H]1C(=O)N2C(C(=O)O)=C(COC(C)=O)CS[C@H]12)c1csc(N)n1 [CEFOTAXIME]
MIC [1]: 64 µg/mL (≈ 141 µM) | MIC [3]: 96 µg/mL (≈ 211 µM) | MIC [4]: 96 µg/mL (≈ 211 µM)

NC[C@H]1O[C@H](O[C@H]2[C@H](O)[C@@H](O[C@H]3O[C@H](CO)[C@@H](O)[C@H](N)[C@H]3O)[C@H](N)C[C@@H]2N)[C@H](N)C[C@@H]1O [TOBRAMYCIN]
MIC [2]: > 256 µg/mL | MIC [1]: > 256 µg/mL | MIC [3]: ≥ 128 µg/mL | MIC [4]: ≥ 128 µg/mL

GENTAMICIN
MIC [2]: > 256 µg/mL | MIC [1]: > 256 µg/mL | MIC [3]: > 128 µg/mL | MIC [4]: > 128 µg/mL
